# From patent publication US20150217046A1, “DOSING REGIMENS FOR SUBCUTANEOUSLY INFUSIBLE ACIDIC COMPOSITIONS” (SynAgile Corporation, priority 2012, published 2015)
# Tests used:
# [1] = Skin symptoms and behavior after subcutaneous LDEE infusion (Example 7); assay type: in vivo, minipigs
# [2] = Infusion site reactions, intermittent subcutaneous infusion of 200 mg/mL LDEE pH 4.5 (Example 2); assay type: in vivo, minipigs
# Excerpt: Each infusion site was spaced a minimum of 2.5 inches (6.3 cm) apart from any other infusion site.
# In all cases, the infusion site reaction constituted a swelling of 0.5-4.0 cm diameter, typically 0.5-1.5 cm.
# [3] = Infusion site reactions, continuous subcutaneous infusion of 100 mg/mL LDEE pH 3.7 (Example 5); assay type: in vivo, minipigs; conditions: for Fraction of sites with a reaction (firmness): pH 3.7, 100 mg/mL (0.44M) LDEE, continuous s.c. 8 h, 280 mg per site, N = 15 infusions
# Description: The 5.6 mL volume was divided between two simultaneously infused sites, each site receiving 2.8 mL, i.e., 280 mg LDEE. At each site the flow rate was 0.35 mL/hour, i.e. 35 mg LDEE/hour was infused. The number of sites infused on the first day totaled in the four minipigs 8, and was 7 on the 8th day, because of dislodgement of a cannula from one site. The total number of infused sites was 15.
# [4] = Plasma LDEE concentrations after 8 hours of subcutaneous infusion (Example 8); parameters: species or system minipigs; conditions: minipig, in vivo
# Description: In addition to measuring the LD plasma concentrations as described in Example 6, also the plasma LDEE concentrations were measured.
# [5] = Infusion site reactions, intermittent and continuous subcutaneous infusion of 100 mg/mL LDEE pH 4.5 (Example 3); assay type: in vivo, minipigs
# Excerpt: There were four treatment groups:
# A: Six infusions, intermittent with ibuprofen.
# B: Six infusions, intermittent with no ibuprofen.
# C: Six infusions, continuous infusion with ibuprofen.
# D: Six infusions, continuous infusion with no ibuprofen.
# [6] = Infusion site reactions, subcutaneous infusion of 50 mg/mL LDEE pH 3.7 (Example 6); conditions: for # of Infusion Site Reactions/# of Infusion Sites: pH 3.7, 50 mg/mL
# Description: Over the course of two consecutive days, four 6-12 week old juvenile minipigs weighing about 6-13 kg were each administered 18 subcutaneous infusions of LDEE pharmaceutical compositions at pH 3.7 (LDEE.HCl, pH adjusted with trisodium citrate). […] Intermittent and continuously infused doses of 137.5-140 mg (0.61-0.62 millimoles) were administered over 8 hours, and intermittent doses of 275 mg (1.22 millimoles) were administered over 16 hours (calculated mass of LDEE in its freebase form).
# Each infusion site was spaced a minimum of 2 inches (5 cm) apart from any other infusion site. All minipigs received seven doses of oral carbidopa, 25 mg/dose: one dose at 12 hours prior to the infusion on the first day; 3 doses on the first day of infusion; and 3 doses on the second day of infusion.
# [7] = Rate of hydrolysis of LD esters in solution; assay type: physicochemical
# Description: At a particular temperature and pH, the LDEs formed of LD and of different alcohols are hydrolyzed prior to their infusion at different rates. […] The rate of hydrolysis of LDE salts also depends on the anion, i.e., on the acid forming the LDE salt. LDE is hydrolyzed more rapidly when carboxylate anions and/or carboxylic acids replace the chloride anion or HCl. The rate of hydrolysis of the salt formed of LDEE and acetic acid can be about 3 times faster at about pH 4.5 at about 23° C. than that of LDEE.HCl, the salt formed of LDEE and HCl. The rate of hydrolysis at a particular pH and temperature can therefore depend on the buffering agent, e.g., citric acid and/or citrate anions, becoming faster when their concentration is elevated. Typically, the concentration of the buffering ions, i.e., the combined concentrations of citrates and citric acid, is between about 5 mM and 100 mM, for example between about 10 mM and 50 mM. The rate of hydrolysis can increase, for example, when the buffering citric acid-citrate concentration is increased.
# In aqueous LDE salt pharmaceutical compositions, the hydrolysis rates generally decrease as the pH decreases, and the shelf life of the LDE salt consequently increases, unless the pH is about 1.7±0.5 or less. […] In acidic pharmaceutical compositions the amines of the LDEs are protonated, making the LDEs cations. […] The rates of hydrolysis generally increase with temperature, and may at least about double or about triple for each 10° C. increase, correspondingly decreasing upon cooling.
compound,measurement,setting,value
"CCOC(=O)[C@@H](N)Cc1ccc(O)c(O)c1 [LDEE, levodopa ethyl ester]",behavior of the minipigs,"[1]; LDEE dose rate raising plasma LD above 10,000 ng/mL, even above 15,000 ng/mL",did not result in a readily observable change in the behavior of the minipigs
same,diameter of slightly raised swelling at infused site,"[1]; minipig D only, 7 days after first infusion and again after end of 8th day reinfusion, 560 mg LDEE 100 mg/mL pH 3.7",about 1 cm
same,diameter of swelling (infusion site reaction),"[2]; 200 mg/mL (0.89 M) LDEE pH 4.5, 140 mg, intermittent s.c., typically 0.5-1.5 cm",0.5-4.0 cm
same,rate of small granuloma formation,"[2]; 200 mg/mL (0.89M) LDEE pH 4.5, 140 mg, 14 days post-infusion",33%
same,infusion site reactions,"[2]; 200 mg/mL (0.89 M) LDEE pH 4.5, 14-15 days post-infusion",8 out of 24
same,diameter of reactions (slightly raised and firm),"[3]; 100 mg/mL (0.44 M) LDEE pH 3.7, continuous s.c. 8 h, 0.35 mL/hour per site",about 1 cm
same,fraction of sites with reactions,"[3]; 100 mg/mL (0.44 M) LDEE pH 3.7, dose divided between two continuously infused sites",1/15
same,Fraction of sites with a reaction (firmness),[3]; 0 hrs after end of infusion,0.067
same,Fraction of sites with a reaction (firmness),[3]; 12 hrs after end of infusion,0.067
same,Fraction of sites with a reaction (firmness),[3]; 24 hrs after end of infusion,0.067
same,Fraction of sites with a reaction (firmness),[3]; 3 days after end of infusion,0.067
same,Fraction of sites with a reaction (firmness),[3]; 7 days after end of infusion,0.067
same,Fraction of sites with a reaction (firmness),[3]; 14 days after end of infusion,0
same,"Plasma LDEE, 480 minutes after start of infusion",[4],6.9 ng/mL
same,diameter of firm swelling (infusion site reaction),"[5]; 100 mg/mL (0.44 M) LDEE pH 4.5, 281 mg over 16 h s.c.",0.5-1.5 cm
same,# of Infusion Site Reactions/# of Infusion Sites,"[5]; 100 mg/mL (0.44 M) LDEE pH 4.5, 281 mg over 16 h s.c., Treatment A intermittent with ibuprofen, 3 Days Post-Infusion",2/6
same,# of Infusion Site Reactions/# of Infusion Sites,"[5]; 100 mg/mL (0.44 M) LDEE pH 4.5, 281 mg over 16 h s.c., Treatment A intermittent with ibuprofen, 10 Days Post-Infusion",5/6
same,# of Infusion Site Reactions/# of Infusion Sites,"[5]; 100 mg/mL (0.44 M) LDEE pH 4.5, 281 mg over 16 h s.c., Treatment A intermittent with ibuprofen, 15 Days Post-Infusion",0/6
same,# of Infusion Site Reactions/# of Infusion Sites,"[5]; 100 mg/mL (0.44 M) LDEE pH 4.5, 281 mg over 16 h s.c., Treatment A intermittent with ibuprofen, Immediately Post-Infusion",0/6
same,# of Infusion Site Reactions/# of Infusion Sites,"[5]; 100 mg/mL (0.44 M) LDEE pH 4.5, 281 mg over 16 h s.c., Treatment B intermittent, no ibuprofen, 3 Days Post-Infusion",1/6
same,# of Infusion Site Reactions/# of Infusion Sites,"[5]; 100 mg/mL (0.44 M) LDEE pH 4.5, 281 mg over 16 h s.c., Treatment B intermittent, no ibuprofen, 10 Days Post-Infusion",1/6
same,# of Infusion Site Reactions/# of Infusion Sites,"[5]; 100 mg/mL (0.44 M) LDEE pH 4.5, 281 mg over 16 h s.c., Treatment B intermittent, no ibuprofen, 15 Days Post-Infusion",0/6
same,# of Infusion Site Reactions/# of Infusion Sites,"[5]; 100 mg/mL (0.44 M) LDEE pH 4.5, 281 mg over 16 h s.c., Treatment B intermittent, no ibuprofen, Immediately Post-Infusion",0/6
same,# of Infusion Site Reactions/# of Infusion Sites,"[5]; 100 mg/mL (0.44 M) LDEE pH 4.5, 281 mg over 16 h s.c., Treatment C continuous with ibuprofen, 3 Days Post-Infusion",2/6
same,# of Infusion Site Reactions/# of Infusion Sites,"[5]; 100 mg/mL (0.44 M) LDEE pH 4.5, 281 mg over 16 h s.c., Treatment C continuous with ibuprofen, 10 Days Post-Infusion",6/6
same,# of Infusion Site Reactions/# of Infusion Sites,"[5]; 100 mg/mL (0.44 M) LDEE pH 4.5, 281 mg over 16 h s.c., Treatment C continuous with ibuprofen, 15 Days Post-Infusion",0/6
same,# of Infusion Site Reactions/# of Infusion Sites,"[5]; 100 mg/mL (0.44 M) LDEE pH 4.5, 281 mg over 16 h s.c., Treatment C continuous with ibuprofen, Immediately Post-Infusion",0/6
same,# of Infusion Site Reactions/# of Infusion Sites,"[5]; 100 mg/mL (0.44 M) LDEE pH 4.5, 281 mg over 16 h s.c., Treatment D continuous, no ibuprofen, 3 Days Post-Infusion",4/6
same,# of Infusion Site Reactions/# of Infusion Sites,"[5]; 100 mg/mL (0.44 M) LDEE pH 4.5, 281 mg over 16 h s.c., Treatment D continuous, no ibuprofen, 10 Days Post-Infusion",1/6
same,# of Infusion Site Reactions/# of Infusion Sites,"[5]; 100 mg/mL (0.44 M) LDEE pH 4.5, 281 mg over 16 h s.c., Treatment D continuous, no ibuprofen, 15 Days Post-Infusion",0/6
same,# of Infusion Site Reactions/# of Infusion Sites,"[5]; 100 mg/mL (0.44 M) LDEE pH 4.5, 281 mg over 16 h s.c., Treatment D continuous, no ibuprofen, Immediately Post-Infusion",0/6
same,"infusion site reactions, all treatments pooled","[5]; 100 mg/mL (0.44 M) LDEE pH 4.5, 14-15 days post-infusion",0 out of 24
same,granuloma formation,"[5]; 281 mg LDEE in 100 mg/mL (0.44 M), pH 4.5, 24 out of 24 infusions",no granuloma formation
same,tolerability of infused volume per site,"[6]; 50 mg/mL LDEE pH 3.7, about 0.34 mL per hour per site",well tolerated
same,# of Infusion Site Reactions/# of Infusion Sites,"[6]; 137.5 mg, 8 hrs, Intermittent s.c., 0 hrs",0/8
same,# of Infusion Site Reactions/# of Infusion Sites,"[6]; 137.5 mg, 8 hrs, Intermittent s.c., 12 hrs",0/8
same,# of Infusion Site Reactions/# of Infusion Sites,"[6]; 137.5 mg, 8 hrs, Intermittent s.c., 24 hrs",0/8
same,# of Infusion Site Reactions/# of Infusion Sites,"[6]; 137.5 mg, 8 hrs, Intermittent s.c., 3 days",3/8
same,# of Infusion Site Reactions/# of Infusion Sites,"[6]; 140 mg, 8 hrs, Continuous s.c., 0 hrs",0/4
same,# of Infusion Site Reactions/# of Infusion Sites,"[6]; 140 mg, 8 hrs, Continuous s.c., 12 hrs",0/4
same,# of Infusion Site Reactions/# of Infusion Sites,"[6]; 140 mg, 8 hrs, Continuous s.c., 24 hrs",0/4
same,# of Infusion Site Reactions/# of Infusion Sites,"[6]; 140 mg, 8 hrs, Continuous s.c., 3 days",0/4
same,# of Infusion Site Reactions/# of Infusion Sites,"[6]; 275 mg, 16 hrs, Intermittent s.c., 0 hrs",0/6
same,# of Infusion Site Reactions/# of Infusion Sites,"[6]; 275 mg, 16 hrs, Intermittent s.c., 12 hrs",0/6
same,# of Infusion Site Reactions/# of Infusion Sites,"[6]; 275 mg, 16 hrs, Intermittent s.c., 24 hrs",1/6
same,# of Infusion Site Reactions/# of Infusion Sites,"[6]; 275 mg, 16 hrs, Intermittent s.c., 3 days",1/6
same,rate of hydrolysis relative to LDME,"[7]; near pH 7, about 37° C.",about four times faster
same,time to hydrolysis,[7]; neutral pH,within hours or less
